O=c1cc(-c2ccc(O)cc2)oc2cc(O)cc(O)c12
solubility (mole fraction)
Conditions | 298.2 K | 303.2 K | 308.2 K | 313.2 K | 318.2 K
in DMSO | 0.376 | 0.384 | 0.395 | 0.407 | 0.418
in ethanol | 0.00025 | 0.000314 | 0.000358 | 0.000426 | 0.000486
in ethyl acetate | 0.000241 | 0.000284 | 0.000326 | 0.000394 | 0.000446
in ethylene glycol | 0.00522 | 0.00573 | 0.00644 | 0.00732 | 0.00822
in isopropanol | 0.00038 | 0.000427 | 0.000485 | 0.000551 | 0.000629
in methanol | 0.000142 | 0.000172 | 0.000207 | 0.000249 | 0.000296
in n-butanol | 0.000562 | 0.00063 | 0.000713 | 0.000808 | 0.000918
in propylene glycol | 0.0101 | 0.0112 | 0.0124 | 0.0137 | 0.015
in sec-butanol | 0.000534 | 0.000603 | 0.000685 | 0.000781 | 0.00089
in transcutol | 0.334 | 0.345 | 0.357 | 0.371 | 0.383
in water | 1.04e-06 | 1.33e-06 | 1.73e-06 | 2.27e-06 | 3.08e-06

Conditions | solubility (mole fraction)
in PEG-400, 298.2 K | 0.397
in PEG-400, 303.2 K | 0.405
in PEG-400, 308.2 K | 0.413
in PEG-400, 313.2 K | 0.42
in PEG-400, 318.2 K | 0.427

Reference: BigSolDB 2.1
